Values of other authors, collected in US20150246043A1, “ORAL DOSAGE FORMS FOR MODIFIED RELEASE COMPRISING RUXOLITINIB” (ratiopharm GmbH, priority 2012, published 2015).

Assays:
[1] = reported for Ruxolitinib and especially its pharmaceutically acceptable salts like the phosphate salt (WO 2008/157208)
[2] = class I = high permeability, high solubility

In the case of `N#CC[C@H](C1CCCC1)n1cc(-c2ncnc3[nH]ccc23)cn1` [Ruxolitinib, (3R)-3-cyclopentyl-3-[4-(7H-pyrrolo[2,3-d]pyrimidin-4-yl)pyrazol-1-yl]propanenitrile], the aqueous solubility [1] is given as “very high” and the “Biopharmaceutics Classification System class” value [2] is given as “class I”.
